Calls of active or inactive are those of the source. The rule behind the calls is not given here.
Key:
[1] = (§1) Inhibition of yeast recombinant FTase; set-up: species or system Saccharomyces cerevisiae
[2] = tested on: Saccharomyces cerevisiae; test: as §1
[3] = Inhibition of yeast recombinant FTase by Lineweaver-Burke plot; set-up: species or system Saccharomyces cerevisiae
[4] = Inhibition of yeast recombinant FTase by non-competitive Lineweaver-Burke plot using farnesyl pyrophosphate substrate; set-up: species or system Saccharomyces cerevisiae

SMILES | IC50 ([1]; read-out: IC50) | also measured
CC(C)Sc1scc(-c2ccc(Cl)cc2)c1C#N |  | IC50 [1]: Not Active
CCOC(=O)c1c(-c2ccc(Cl)cc2)c(C#N)c(SC(C)C)n1C |  | Activity [2]: inactive
CC(C)Sc1nc(-c2ccc(Cl)cc2)c(C(=O)O)s1 | 51 µM | 
CSc1sc(C(=O)NC2CC2)c(-c2ccc(Cl)cc2)c1C#N | 22 µM | 
CON(C)C(=O)c1sc(SC(C)C)c(C#N)c1-c1ccc(Cl)cc1 |  | IC50 [1]: Not Active
CC(C)Sc1oc(C(=O)O)c(-c2ccc(Cl)cc2)c1C#N | 2 µM | 
CC(C)Sc1c(C#N)c(-c2ccc(Cl)cc2)c(C(=O)O)n1C | 47 µM | 
CC(=O)OCc1sc(SC(C)C)c(C#N)c1-c1ccc(Cl)cc1 | 45 µM | 
CCSc1sc(C(=O)O)c(-c2ccc(Cl)cc2)c1C#N | 0.325 µM | 
CCOC(=O)c1sc(SC(C)C)nc1-c1ccc(Cl)cc1 |  | Activity [2]: inactive
N#Cc1c(SC2CCCCC2)sc(C(=O)O)c1-c1ccc(Cl)cc1 | 1.45 µM | 
CC(=O)c1sc(SC(C)C)c(C#N)c1-c1ccc(Cl)cc1 | 0.79 µM | 
CSCC[C@@H](NC(=O)c1sc(SC(C)C)c(C#N)c1-c1ccc(Cl)cc1)C(=O)O | 0.0075 µM | 
CC(C)Sc1sc(C(N)=O)c(-c2ccc(Cl)cc2)c1C#N | 1.1 µM | 
CCOC(=O)c1sc(SC(C)C)c(C#N)c1-c1ccc(Cl)cc1 | 3.8 µM | 
COC(=O)[C@@H](CCSC)NC(=O)c1sc(SC(C)C)c(C#N)c1-c1ccc(Cl)cc1 | 5.7 µM | 
CC(C)CSc1sc(C(=O)O)c(-c2ccc(Cl)cc2)c1C#N | 0.89 µM | 
CCOC(=O)c1oc(SC(C)C)c(C#N)c1-c1ccc(Cl)cc1 |  | Activity [2]: inactive
CCC(C)Sc1sc(C(=O)O)c(-c2ccc(Cl)cc2)c1C#N (stereo unspecified) | 0.345 µM | 
CC(C)Sc1sc(CO)c(-c2ccc(Cl)cc2)c1C#N |  | IC50 [1]: Not Active
CSc1sc(C(=O)O)c(-c2ccc(Cl)cc2)c1C#N | 0.61 µM | 
CC(C)Sc1sc(C(=O)O)c(-c2ccc(Cl)cc2)c1C#N | 0.11 µM | Ki [3]: 0.105 µM; Ki [4]: 0.11 µM
N#Cc1c(N2CCOCC2)sc(C(=O)O)c1-c1ccc(Cl)cc1 | 28 µM | 
CCCCSc1sc(C(=O)O)c(-c2ccc(Cl)cc2)c1C#N | 1.24 µM | 

Source: ChEMBL document CHEMBL1155240, “Discovery of a new class of protein farnesyltransferase inhibitors in the arylthiophene series” (J Med Chem, 2009)
